Assays:
[1] = test system: TSPO; experiment: In vitro autoradiography of postmortem human brain; format: binding; details: postmortem human temporal cortex sections, 0.5 nM radioligand
[2] = target: TSPO (Rattus norvegicus, UniProt P16257); details: ischemic rat brain, previously published data; cited from earlier work
TSPO (Rattus norvegicus, UniProt P16257), sequence (P16257 whole entry): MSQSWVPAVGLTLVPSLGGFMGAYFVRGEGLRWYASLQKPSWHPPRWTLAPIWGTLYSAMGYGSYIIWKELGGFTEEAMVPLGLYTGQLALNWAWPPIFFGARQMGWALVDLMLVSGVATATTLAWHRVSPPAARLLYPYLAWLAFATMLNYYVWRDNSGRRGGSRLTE

| binding ratio for HAB-1 to that of LAB-1, RB(H/L) (also printed RB(L/H)) [1] | SMILES | apparent BPND (SRTM) [2] |
| --- | --- | --- |
| ~1.19 | COc1ccc(O[11CH3])c(CN(C(C)=O)c2cc(F)ccc2Oc2ccccc2)c1 [[^11C]DAA1106] |  |
| ~4.60 | CCN(Cc1ccccc1)C(=O)Cn1c(=O)n(C)c2cnc(-c3ccccc3)nc21 [[^11C]AC-5216] |  |
|  | CC[C@@H](C)N([11CH3])C(=O)c1cc2ccccc2c(-c2ccccc2Cl)n1 [(R)[^11C]PK11195] | 1.59 ± 0.33 |
